Data as given in article PMC7180456, “Multitarget Anticancer Agents Based on Histone Deacetylase and Protein Kinase CK2 Inhibitors” (Molecules, 2020).
Like-named read-outs stand apart in the source and are kept apart here.

Tests used:
human recombinant HDAC1 = molecular target: T1, human recombinant HDAC1 (Homo sapiens, UniProt Q13547); assay: HDAC1 inhibition, fluorometric method (Enzo Fluorometric Drug Discovery Assay Kit); assay type: biochemical; conditions: read-out: Inhibitory activity IC50 on HDAC1
T1 construct: purchased Enzo Life Sciences, Inc
Protocol: The inhibitory activities of the synthesized compounds were determined against CK2 and HDAC1 and the IC50 values are collected in Table 1. The activity towards human recombinant HDAC1 was tested using a fluorometric method. CK2 inhibitory activity was determined by a radiometric method, using a short peptide ([…]) as a substrate.
(§1) 15 µL of HDAC1 (0.4 µg/well) or HDAC6 (0.5 µg/well) were incubated at 37 °C for 30 minutes with 10 µL of inhibitor diluted in 5% DMSO and 25 µL of fluorogenic substrate (0.05 µL/well of 5 mM solution). Reactions were stopped with the developer and trichostatin A, diluted in buffer without BSA, and the plate was incubated at 30 °C for 45 min, followed by measuring the fluorescence (Ex. 360 nm, Em. 450 nm, Fluoroskan, Thermo Scientific).

HDAC6 = molecular target: T2, HDAC6 (Homo sapiens, UniProt Q9UBN7); assay: HDAC6 inhibition, fluorometric method (Enzo Fluorometric Drug Discovery Assay Kit); assay type: biochemical; conditions: read-out: Inhibitory activity IC50 on HDAC6
T2 construct: purchased Enzo Life Sciences, Inc
T2 sequence (Q9UBN7 1-1215): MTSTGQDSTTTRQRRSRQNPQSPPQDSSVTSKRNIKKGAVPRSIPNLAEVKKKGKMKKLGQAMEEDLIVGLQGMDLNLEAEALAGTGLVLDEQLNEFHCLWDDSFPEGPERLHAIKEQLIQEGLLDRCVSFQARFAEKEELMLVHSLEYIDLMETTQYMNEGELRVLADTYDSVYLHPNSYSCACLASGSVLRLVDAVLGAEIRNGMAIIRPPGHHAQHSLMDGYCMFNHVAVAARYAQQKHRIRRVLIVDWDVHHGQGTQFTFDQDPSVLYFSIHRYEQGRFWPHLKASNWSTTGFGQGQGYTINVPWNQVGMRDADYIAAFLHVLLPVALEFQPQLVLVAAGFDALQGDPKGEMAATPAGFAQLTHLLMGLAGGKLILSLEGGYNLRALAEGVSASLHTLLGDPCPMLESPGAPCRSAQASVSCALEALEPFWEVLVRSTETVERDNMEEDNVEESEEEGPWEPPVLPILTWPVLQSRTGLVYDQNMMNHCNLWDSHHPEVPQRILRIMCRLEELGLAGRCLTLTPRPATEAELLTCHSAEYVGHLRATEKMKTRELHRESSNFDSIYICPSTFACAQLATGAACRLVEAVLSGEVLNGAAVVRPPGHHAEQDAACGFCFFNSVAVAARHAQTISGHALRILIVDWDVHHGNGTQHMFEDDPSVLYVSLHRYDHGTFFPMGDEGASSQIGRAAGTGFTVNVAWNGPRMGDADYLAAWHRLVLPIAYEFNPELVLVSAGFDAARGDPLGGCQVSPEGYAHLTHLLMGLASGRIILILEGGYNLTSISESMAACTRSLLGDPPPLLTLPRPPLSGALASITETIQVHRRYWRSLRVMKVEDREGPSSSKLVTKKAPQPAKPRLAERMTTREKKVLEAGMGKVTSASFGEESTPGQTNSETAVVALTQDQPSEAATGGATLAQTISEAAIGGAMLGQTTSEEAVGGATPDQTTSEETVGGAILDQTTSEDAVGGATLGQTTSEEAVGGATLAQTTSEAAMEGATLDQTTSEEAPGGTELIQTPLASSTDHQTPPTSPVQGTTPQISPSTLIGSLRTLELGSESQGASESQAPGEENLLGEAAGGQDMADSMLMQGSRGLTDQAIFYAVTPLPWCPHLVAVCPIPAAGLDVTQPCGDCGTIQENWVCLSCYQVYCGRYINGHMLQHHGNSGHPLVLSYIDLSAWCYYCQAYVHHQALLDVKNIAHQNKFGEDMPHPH
Protocol: For this reason, we analyzed the activity of 15 and 19, together with other compounds from the alkyl and triazole series in HDAC6, tested using a fluorometric method (Table 1).
as §1

human recombinant CK2α = molecular target: T3, human recombinant CK2α (Homo sapiens, UniProt P68400); assay: CK2 inhibition, radiometric method with peptide substrate […]; assay type: biochemical; conditions: for IC50: radiometric method, 20 µM ATP, read-out: Inhibitory activity IC50 on CK2; for fold less active in CK2 (than in HDAC1): CK2 IC50 versus HDAC1 IC50
T3 construct: GST; made in house; host or cells: bacteria
Protocol: The activity towards human recombinant HDAC1 was tested using a fluorometric method. CK2 inhibitory activity was determined by a radiometric method, using a short peptide ([…]) as a substrate.
Recombinant human protein kinase GST-CK2 was produced in bacteria and purified as described elsewhere. […] The reaction buffer contained 20 µM [γ-32P] ATP (specific radioactivity 300–1000 cpm/pmol), 15 mM Mg^2+, 20 mM Tris–HCl pH 7.5, and 6 mM 2-mercaptoethanol. 10 µL of the assay mixture was spotted onto a square (1 cm/1 cm) of Whatman P81 paper and allowed to dry. Each square was immersed in cold 0.5% phosphoric acid, and washed three times during 10 min, allowed to dry and transferred into a vessel containing Opti-Phase liquid (scintillation solution) and radioactivity was quantified using a scintillation counter (MicroBeta, Perkin Elmer) by Cerenkov counting. All experiments were performed in triplicate. IC50 values were calculated using GraphPad Prism (version 4.0) software.

[1] = tested on: HL-60/adr (doxorubicin-resistant, MRP-1 overexpression); assay: Cytotoxicity, trypan blue exclusion assay, 24 h; assay type: cell-based; conditions: Homo sapiens, HL60/ADR
Excerpt: (§2) Taking into consideration the high abundance of CK2 kinase in leukemia and lymphomas, the ability of selected CK2-HDAC dual inhibitors to circumvent MDR was investigated in human leukemia cells of HL-60 line and its doxorubicin-resistant (HL-60/adr, MRP-1 overexpression) and vincristine-resistant (HL-60/vinc, P-gp overexpression) sublines.
(§3) Statistical significance was set at P ≤ 0.05.

[2] = tested on: HL-60/vinc (vincristine-resistant, P-gp overexpression); assay: Cytotoxicity, trypan blue exclusion assay, 24 h; assay type: cell-based; conditions: for CC50: Homo sapiens, HL60/vinc
Excerpt: as §2, §3

[3] = tested on: leukemia cells of HL-60 line; assay: Cytotoxicity, trypan blue exclusion assay, 24 h; assay type: cell-based; conditions: Homo sapiens
Excerpt: as §2, §3

[4] = tested on: human tumor and pseudonormal cell lines; assay: Cytotoxicity, trypan blue assay, range over the cell lines tested; assay type: cell-based; conditions: 24 h, read-out: LC50 range depending on cell line
Excerpt: as §3

HL-60/wt cells = assay: Depolarization of mitochondria, JC-1 assay, FACS; assay type: cell-based, human; conditions: 24 h
Jurkat T-leukemia cells = assay: Cytotoxicity, trypan blue exclusion assay, 24 h; conditions: Homo sapiens
Protocol: (§4) Walter Berger, Institute of Cancer Research, Vienna Medical University. Human embryonal kidney cells of HEK293 line were obtained from cell culture collection of R.E. Kavetsky Institute of Experimental Pathology, Oncology and Radiobiology, National Academy of Sciences of Ukraine (Kyiv, Ukraine).
(§5) Cells were seeded (5 × 10^5/mL for leukemia cells and 1 × 10^5/mL for carcinoma cells) into 24-well tissue culture plates (Greiner Bio-one, Frickenhausen, Germany) and were permitted to adhere and grow for 24 h before the experiment. Short-term (24 h) cytotoxic effect of antitumor drugs was studied under the Evolution 300 Trino microscope (Delta Optical, Nowe Osiny, Poland) after cell staining with trypan blue dye (0.1%).
(§6) Final concentration of DMSO in cell culture was 0.5% or less.
(§7) All experiments were performed in triplicate and repeated three times. Statistical analysis of data was conducted in GraphPad Prism 7.0 Software (GraphPad Software, Inc.) using Student’s t test. Statistical significance was set at P ≤ 0.05. Evaluation of LC50 values of each compound was done by built-in functions of GraphPad Prism (non-linear regression, curve fit, [Inhibitor] vs. normalized response - Variable slope).

[5] = tested on: breast adenocarcinoma cells of MCF-7 line; assay: Cytotoxicity, trypan blue exclusion assay, 24 h; conditions: Homo sapiens
Protocol: as §4, §5, §6, §7

[6] = tested on: HCT-116 colon carcinoma cells; assay: Cytotoxicity, trypan blue exclusion assay, 24 h; conditions: Homo sapiens
Protocol: as §4, §5, §6, §7

[7] = Cytotoxicity, trypan blue exclusion assay, 24 h (pseudonormal cells); conditions: human, HEK293 embryonic kidney cells (pseudonormal)
Protocol: as §4, §5, §6, §7

CK2 = conditions: Figure 1; read-out: IC50 of representative CK2 inhibitors; cited from earlier work
[8] = Table 2, trypan blue, 24 h, M ± SD, read-out: LC50 Values of Compounds for Cell Line, HL-60/adr
[9] = supplement Table 4S, M±SD, read-out: LC50 values of compounds for cell line, HL-60/adr
[10] = Table 2, trypan blue, 24 h, M ± SD, read-out: LC50 Values of Compounds for Cell Line, HL-60/vinc
[11] = supplement Table 4S, M±SD, read-out: LC50 values of compounds for cell line, HL-60/vinc
[12] = Table 2, trypan blue, 24 h, M ± SD, read-out: LC50 Values of Compounds for Cell Line, HL-60
[13] = supplement Table 4S, M±SD, read-out: LC50 values of compounds for cell line, HL-60
[14] = 24 h, read-out: LC50 Values of Compounds for Cell Line, Jurkat
[15] = read-out: LC50 values of compounds for cell line, Jurkat
[16] = MCF7, 24 h, read-out: LC50 Values of Compounds for Cell Line, MCF-7
[17] = MCF7, read-out: LC50 values of compounds for cell line, MCF-7
[18] = HCT-116, 24 h, read-out: LC50 Values of Compounds for Cell Line, HCT-116
[19] = HCT-116, read-out: LC50 values of compounds for cell line, HCT-116
[20] = LC50 Values of Compounds for Cell Line, HEK293, Table 2, trypan blue, 24 h, M ± SD
[21] = LC50 values of compounds for cell line, HEK293, supplement Table 4S, M±SD

T3 sequence (P68400 whole entry): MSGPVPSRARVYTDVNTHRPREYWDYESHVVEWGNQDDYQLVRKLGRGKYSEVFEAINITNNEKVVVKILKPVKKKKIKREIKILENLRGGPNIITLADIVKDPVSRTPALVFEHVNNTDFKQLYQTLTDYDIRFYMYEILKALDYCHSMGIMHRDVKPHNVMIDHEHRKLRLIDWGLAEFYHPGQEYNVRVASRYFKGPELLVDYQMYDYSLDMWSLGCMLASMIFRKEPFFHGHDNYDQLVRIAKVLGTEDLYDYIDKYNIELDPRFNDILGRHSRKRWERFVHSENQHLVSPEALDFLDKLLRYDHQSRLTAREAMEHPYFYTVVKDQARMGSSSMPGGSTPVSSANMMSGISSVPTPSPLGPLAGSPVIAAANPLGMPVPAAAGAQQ
T1 sequence (Q13547 whole entry): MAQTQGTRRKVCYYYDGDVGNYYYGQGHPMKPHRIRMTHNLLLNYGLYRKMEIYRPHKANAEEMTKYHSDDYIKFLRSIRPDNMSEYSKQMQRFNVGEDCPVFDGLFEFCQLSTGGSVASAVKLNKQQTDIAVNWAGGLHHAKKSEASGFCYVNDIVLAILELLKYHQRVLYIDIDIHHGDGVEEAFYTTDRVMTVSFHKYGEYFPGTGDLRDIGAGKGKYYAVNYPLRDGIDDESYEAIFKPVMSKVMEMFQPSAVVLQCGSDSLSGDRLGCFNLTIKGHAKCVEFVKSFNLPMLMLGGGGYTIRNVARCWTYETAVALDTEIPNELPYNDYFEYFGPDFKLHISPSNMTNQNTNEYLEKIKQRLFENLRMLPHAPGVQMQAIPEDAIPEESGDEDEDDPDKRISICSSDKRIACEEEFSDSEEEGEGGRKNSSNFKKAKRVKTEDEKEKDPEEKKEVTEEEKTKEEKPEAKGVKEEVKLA

SMILES: O=C(NO)c1ccc(Cn2nnc3c(Br)c(Br)c(Br)c(Br)c32)cc1 [Compound 15b, N-Hydroxy-4-((tetrabromo-1H-benzo[d][1,2,3]triazol-1-yl)methyl)benzamide]
- IC50 (human recombinant HDAC1): 4.22 µM
- IC50 (HDAC6): 2700 nM
- IC50 (human recombinant CK2α): 136 µM

SMILES: CN(C)c1nc2c(Br)c(Br)c(Br)c(Br)c2n1CCCCCCCC(=O)NO [Compound 11d, N-Hydroxy-8-(4,5,6,7-tetrabromo-2-(dimethylamino)-1H-benzo[d]imidazol-1-yl)octanamide]
- IC50 (human recombinant HDAC1): 13.7 µM
- IC50 (HDAC6): 8980 nM
- CC50 [1, 8]: 8.4 ± 1.21 µM
- CC50 [1, 9]: 15.1 µM
- change of activity towards P-gp overexpressing HL-60/vinc cells versus HL-60/wt ([2]; 24 h): increased twofold
- CC50 [2, 10]: 2.32 ± 1.06 µM
- CC50 [2, 11]: > 30 µM
- CC50 [3, 12]: 4.69 ± 0.54 µM
- CC50 [3, 13]: 29.7 µM
- CC50 [4]: 3 to 8 µM
- level of depolarized mitochondria (HL-60/wt cells; dose not stated in the sentence (10 µM and 30 µM tested)): 53.23%
- CC50 (Jurkat T-leukemia cells; [14]): 5.3 ± 0.75 µM
- CC50 (Jurkat T-leukemia cells; [15]): 14.2 µM
- CC50 [5, 16]: 9.02 ± 0.9 µM
- CC50 [5, 17]: 27.8 µM
- CC50 [6, 18]: 3.1 ± 0.37 µM
- CC50 [6, 19]: 16.9 µM
- CC50 at 24 h [7, 20]: 8.41 ± 1.26 µM
- CC50 at 24 h [7, 21]: > 30 µM

SMILES: CN(C)c1nc2c(Br)c(Br)c(Br)c(Br)c2n1Cc1cn(CCCC(=O)NO)nn1 [Compound 7a, N-Hydroxy-4-(4-((4,5,6,7-tetrabromo-2-(dimethylamino)-1H-benzo[d]imidazol-1-yl)methyl)-1H-1,2,3-triazol-1-yl)butanamide]
- IC50 (human recombinant HDAC1): 1.43 µM
- fold less active in CK2 (than in HDAC1) (human recombinant CK2α): 60 fold
- IC50 (human recombinant CK2α): 85.1 µM

SMILES: O=c1c(O)c(-c2ccc(O)c(O)c2)oc2cc(O)ccc12 [Fisetin]
- IC50 (CK2): 350 nM

SMILES: CN(C)c1nc2c(Br)c(Br)c(Br)c(Br)c2n1CCCCC(=O)NO [Compound 11a, N-Hydroxy-5-(4,5,6,7-tetrabromo-2-(dimethylamino)-1H-benzo[d]imidazol-1-yl)pentanamide]
- IC50 (human recombinant HDAC1): 62 µM
- IC50 (human recombinant CK2α): 34.2 µM

SMILES: O=c1oc2c(O)c(O)cc3c(=O)oc4c(O)c(O)cc1c4c23 [Ellagic acid]
- IC50 (CK2): 40 nM

SMILES: CN(C)c1nc2c(Br)c(Br)c(Br)c(Br)c2n1CCc1cn(CCCC(=O)NO)nn1 [Compound 7d, N-Hydroxy-4-(4-(2-(4,5,6,7-tetrabromo-2-(dimethylamino)-1H-benzo[d]imidazol-1-yl)ethyl)-1H-1,2,3-triazol-1-yl)butanamide]
- IC50 (human recombinant HDAC1): 10.2 µM
- IC50 (human recombinant CK2α): 53.8 µM

SMILES: CN(C)c1nc2c(Br)c(Br)c(Br)c(Br)c2n1Cc1cn(CCCCC(=O)NO)nn1 [Compound 7b, N-Hydroxy-5-(4-((4,5,6,7-tetrabromo-2-(dimethylamino)-1H-benzo[d]imidazol-1-yl)methyl)-1H-1,2,3-triazol-1-yl)pentanamide]
- IC50 (human recombinant HDAC1): 2.25 µM
- IC50 (HDAC6): 2410 nM
- fold less active in CK2 (than in HDAC1) (human recombinant CK2α): 22 fold
- IC50 (human recombinant CK2α): 50.1 µM

SMILES: CN(C)c1nc2c(Br)c(Br)c(Br)c(Br)c2n1CCCCCC(=O)NO [Compound 11b, N-Hydroxy-6-(4,5,6,7-tetrabromo-2-(dimethylamino)-1H-benzo[d]imidazol-1-yl)hexanamide]
- IC50 (human recombinant HDAC1): 1.46 µM
- IC50 (HDAC6): 660 nM
- CC50 [1, 8]: 16.2 ± 1.68 µM
- CC50 [1, 9]: 10.6 µM
- CC50 [2, 10]: 16.8 ± 3.34 µM
- CC50 [2, 11]: 12.7 µM
- CC50 [3, 12]: 7.67 ± 1.17 µM
- CC50 [3, 13]: 6.59 µM
- CC50 [4]: 4 to 23 µM
- depolarization of mitochondria (HL-60/wt cells; 10 µM): 14.55%
- depolarization of mitochondria (HL-60/wt cells; 30 µM): 34.06%
- CC50 (Jurkat T-leukemia cells; [14]): 10.2 ± 1.43 µM
- CC50 (Jurkat T-leukemia cells; [15]): 10 µM
- CC50 [5, 16]: 15.7 ± 2.54 µM
- CC50 [5, 17]: 9.97 µM
- CC50 [6, 18]: 4.22 ± 0.46 µM
- CC50 [6, 19]: 1.9 µM
- CC50 at 24 h [7, 20]: 23.3 ± 4.38 µM
- CC50 at 24 h [7, 21]: 13.6 µM
